Measurements: ChEMBL document CHEMBL1201862, “PubChem BioAssay data set” (2004)
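Cells were grown in 96-well plates and exposed to each compound for 48 hours at five concentrations; endpoints were interpolated linearly between bracketing concentrations, or set to the highest concentration if not reached. GI50 marks 50% less growth.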 Active and inactive are the calls of the source. Rule as the data show it: active = GI50 up to about 1.1 µM and inactive = higher.

Tests used:
Experiment in all cases: NCI anticancer screen, dose series, 48 h
MDA-N = system: MDA-N
MCF7 = system: MCF7
COLO 205 = system: COLO 205
SK-MEL-2 = system: SK-MEL-2
SNB-19 = system: SNB-19
NCI/ADR-RES = system: NCI/ADR-RES
Malme-3M = system: Malme-3M
T47D = system: T47D
NCI-H522 = system: NCI-H522
SF-268 = system: SF-268
BT-549 = system: BT-549
HCC 2998 = system: HCC 2998
CAKI-1 = system: CAKI-1
SNB-75 = system: SNB-75
KM12 = system: KM12
HL-60 = system: HL-60
IGROV-1 = system: IGROV-1
HCT-15 = system: HCT-15
OVCAR-8 = system: OVCAR-8
DU-145 = system: DU-145

Structure (SMILES)	GI50 (MDA-N)	GI50 (MCF7)	GI50 (COLO 205)	GI50 (SK-MEL-2)	GI50 (SNB-19)	GI50 (NCI/ADR-RES)	GI50 (Malme-3M)	GI50 (T47D)	GI50 (NCI-H522)	GI50 (SF-268)	GI50 (BT-549)	GI50 (HCC 2998)	GI50 (CAKI-1)	GI50 (SNB-75)	GI50 (KM12)	GI50 (HL-60)	GI50 (IGROV-1)	GI50 (HCT-15) [µM]	GI50 (OVCAR-8)	GI50 (DU-145)
CSc1c(C#N)c(O)nc(N)c1C(=O)Nc1ccc(Cl)cc1	12 µM (inactive)	8.63 µM (inactive)	10.6 µM (inactive)	6.25 µM (inactive)	31.8 µM (inactive)	17.4 µM (inactive)	26.5 µM (inactive)	8.38 µM (inactive)	14.1 µM (inactive)	19.5 µM (inactive)	24.5 µM (inactive)	11.5 µM (inactive)	12.6 µM (inactive)	37.8 µM (inactive)	7.96 µM (inactive)	13.2 µM (inactive)	23.2 µM (inactive)	11.5	19.1 µM (inactive)	17.5 µM (inactive)
CCCCCCCCCCCCCCCCCCNc1nc(=O)n(C2CC(O)C(COP(=O)(O)OCC(COP(=O)(O)OC3C(CO)OC(n4ccc(N)nc4=O)C3O)OCCCCCCCCCCCCCCCCCC)O2)cc1F (stereo not given)	> 100 µM (inactive)	8.71 µM (inactive)	16.7 µM (inactive)	> 100 µM (inactive)	14.9 µM (inactive)	> 100 µM (inactive)	41.4 µM (inactive)	80.9 µM (inactive)	11.9 µM (inactive)	91.6 µM (inactive)	56.4 µM (inactive)	14.1 µM (inactive)	46.3 µM (inactive)	80.5 µM (inactive)	> 100 µM (inactive)	8.36 µM (inactive)	46.8 µM (inactive)	34	18.6 µM (inactive)	34.8 µM (inactive)
O=c1c(-c2ccccc2)c(SCCN2CCCC2)n(-c2ccccc2)c(=S)n1-c1ccccc1	> 100 µM (inactive)	> 100 µM (inactive)	> 100 µM (inactive)	> 100 µM (inactive)	> 100 µM (inactive)	> 100 µM (inactive)	> 100 µM (inactive)	> 100 µM (inactive)	> 100 µM (inactive)	> 100 µM (inactive)	> 100 µM (inactive)	> 100 µM (inactive)	> 100 µM (inactive)	34.4 µM (inactive)	> 100 µM (inactive)	> 100 µM (inactive)	> 100 µM (inactive)	> 100	> 100 µM (inactive)	> 100 µM (inactive)
CC(=O)Nc1ccc(CNc2cc(=O)[nH]c(=O)[nH]2)cc1	> 100 µM (inactive)	> 100 µM (inactive)	> 100 µM (inactive)	> 100 µM (inactive)	> 100 µM (inactive)	> 100 µM (inactive)	> 100 µM (inactive)	> 100 µM (inactive)	> 100 µM (inactive)	> 100 µM (inactive)	> 100 µM (inactive)	> 100 µM (inactive)	> 100 µM (inactive)	> 100 µM (inactive)	> 100 µM (inactive)	> 100 µM (inactive)	> 100 µM (inactive)	> 100	> 100 µM (inactive)	> 100 µM (inactive)
NC(=O)C1=C(O)C[C@@H]2CC3Cc4cccc(O)c4C(=O)C3=C(O)[C@]2(O)C1=O (stereo not given in full)	2.9 µM (inactive)	1.79 µM (inactive)	1.63 µM (inactive)	1.86 µM (inactive)	1.88 µM (inactive)	3.24 µM (inactive)	2 µM (inactive)	2.63 µM (inactive)	1.89 µM (inactive)	2.02 µM (inactive)	1.87 µM (inactive)	3.1 µM (inactive)	10.6 µM (inactive)	2.43 µM (inactive)	9.55 µM (inactive)	2.83 µM (inactive)	2 µM (inactive)	0.479	2.92 µM (inactive)	3.16 µM (inactive)
COC(=O)[C@H](Cc1ccccc1)NP(=O)(OCCC#N)OCC1OC(n2cc(C)c(=O)[nH]c2=O)CC1N=[N+]=[N-] (stereo not given in full)	> 100 µM (inactive)	> 100 µM (inactive)	> 100 µM (inactive)	> 100 µM (inactive)	> 100 µM (inactive)	> 100 µM (inactive)	> 100 µM (inactive)	> 100 µM (inactive)	35 µM (inactive)	> 100 µM (inactive)	> 100 µM (inactive)	> 100 µM (inactive)	> 100 µM (inactive)	> 100 µM (inactive)	> 100 µM (inactive)	> 100 µM (inactive)	> 100 µM (inactive)	> 100	> 100 µM (inactive)	> 100 µM (inactive)
NC(=O)Nc1n[nH]c(-c2ccccc2)n1	> 100 µM (inactive)	> 100 µM (inactive)	> 100 µM (inactive)	> 100 µM (inactive)	> 100 µM (inactive)	> 100 µM (inactive)	> 100 µM (inactive)	> 100 µM (inactive)	> 100 µM (inactive)	> 100 µM (inactive)	> 100 µM (inactive)	> 100 µM (inactive)	> 100 µM (inactive)	> 100 µM (inactive)	> 100 µM (inactive)	> 100 µM (inactive)	> 100 µM (inactive)	> 100	> 100 µM (inactive)	> 100 µM (inactive)
